Measurements: patent US7759072B2, “Immunoassay method and reagent therefor” (Sekisui Medical Co., Ltd., priority 2005, dated 2010)

The compounds below were run against T1, apo-D-amino acid oxidase (Sus scrofa, UniProt P00371) (assay: Comparison of reactivity between various D-amino acids as substrates of FAD-reactivated apo-D-amino acid oxidase (peroxidase/DA-64 colorimetric, Hitachi 7170)). Conditions: 5 mM D-amino acid in reagent 1, 50 mM Tris-HCl pH 8.3; 10 U/ml apo-D-amino acid oxidase, FAD sample; 700 nm; D-valine = 100.
T1 construct: Apo-D-amino acid oxidase extracted and purified from the porcine kidneys is known and can be suitably used; purchased Calzyme Inc. 176A0025
Type: biochemical, porcine
Method: Reagent 1 containing 50 mM Tris-HCl (pH 8.3), 5 mM DA-64 (Wako Pure Chemical Industries), and 5 mM D-amino acid, reagent 2 containing 10 U/ml apo-D-amino acid oxidase (Calzyme Inc., Catalog No. 176A0025) and 5 U/ml peroxidase, and aqueous FAD solution as a sample were applied to a Hitachi 7170 automated analyzer at a setting of two-point end-mode and using a parameters of 7 μl for a sample, 180 μl for R1, 90 μl for R2, and 700 nm for a wavelength for determination.
As in 1), the activity of the reconstituted apoenzyme was confirmed. Assays only varying types of the D-amino acids were then performed. As D-amino acids, D-forms of Ala, Met, Val, Ile, Phe, Pro, Ser, Thr, Asn, Leu, Tyr, Trp, Asp, Glu, His, and Arg were each used. The percent reactivities of the above-mentioned various D-amino acids were calculated to the value of D-valine which was defined as 100.

T1 sequence (P00371 whole entry): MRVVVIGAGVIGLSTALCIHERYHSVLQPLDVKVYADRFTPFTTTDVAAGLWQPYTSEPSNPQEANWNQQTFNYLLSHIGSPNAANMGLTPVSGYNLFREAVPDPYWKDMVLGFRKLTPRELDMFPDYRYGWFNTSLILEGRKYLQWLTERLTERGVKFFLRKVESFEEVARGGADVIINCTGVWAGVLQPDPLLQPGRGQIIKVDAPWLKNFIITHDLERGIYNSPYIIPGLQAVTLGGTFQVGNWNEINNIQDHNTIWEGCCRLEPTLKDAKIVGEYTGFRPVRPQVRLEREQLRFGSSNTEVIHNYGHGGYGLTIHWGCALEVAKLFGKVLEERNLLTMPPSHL

| Compound | percent reactivity of D-amino acid (relative to D-valine defined as 100) |
| --- | --- |
| C[C@@H](N)C(=O)O [D-Ala] | 136% |
| NC(N)=NCCCC(N)C(=O)O [D-Arg] | 8% |
| CC[C@@H](C)[C@@H](N)C(=O)O [D-Ile] | 178% |
| CC(C)C[C@@H](N)C(=O)O [D-Leu] | 97% |
| CSCC[C@@H](N)C(=O)O [D-Met] | 322% |
| N[C@H](Cc1ccccc1)C(=O)O [D-Phe] | 170% |
| O=C(O)[C@H]1CCCN1 [D-Pro, D-proline] | 374% |
| N[C@H](CO)C(=O)O [D-Ser] | 117% |
| N[C@H](Cc1c[nH]c2ccccc12)C(=O)O [D-Trp] | 14% |
| N[C@H](Cc1ccc(O)cc1)C(=O)O [D-Tyr, D-tyrosine] | 159% |
| CC(C)[C@@H](N)C(=O)O [D-Val, D-valine] | 100% |
